“Also recorded” adds a separate entry of the source.

The subject of this experiment is NCI-60 cell lines. The format is cell-based, human.
Consider VRASSKR, for which the “Cell Line (NCI-60 cell line the peptide and its motif are associated with)” value is given as “OVCAR-5 Ovarian”. In the case of VRAVCLM, the “Cell Line (NCI-60 cell line the peptide is associated with)” value is “SNB-75 CNS”. On the same count and under the same terms, for VRGGLTG the value was “HT-29 Colon”. Same read-out and setting: the value for VRGSRWR was “HT-29 Colon”. As for VRGSVRA, the “Cell Line with which the peptide (and its tripeptide motif) is associated” value (“Cell Line with which the peptide” below) is on record as “H23-Lung”. For the substance VRLRAVF, the “Cell Line the peptide is associated with (peptide recovered from phage library selection on this NCI-60 cell line)” value is on record as “TK-10 Renal”.

Take VRLSGRA: the “Cell Line (NCI-60 cell line the peptide is associated with)” value was “SNB-19 CNS; also recorded: SF-539 CNS”.

On to VRLTGVR, for which the “Cell Line (NCI-60 cell line the peptide and its motif are associated with)” value is recorded as “SK-OV-3-3 Ovarian”.

On to VRPRAVL, for which the “Cell Line (NCI-60 cell line the peptide and its motif are associated with)” value is on record as “UACC62 Melanoma”. Regarding VRRSSKF, the “Cell Line the peptide is associated with (peptide recovered from phage library selection on this NCI-60 cell line)” value is reported as “BT-549 Breast”.

For the substance VRSSGVL, the “Cell Line (NCI-60 cell line the peptide and its motif are associated with)” value is on record as “SK-OV-3-3 Ovarian”.

Turning to VRVGRLS, the “Cell Line (NCI-60 cell line the peptide and its motif are associated with)” value is “UACC62 Melanoma”. Still for that read-out and setting: the value for VRVSGLT was “SK-MEL-5 Melanoma”. As to VRVSLNS, the “Cell Line the peptide is associated with (peptide recovered from phage library selection on this NCI-60 cell line)” value was “MDA-MB-231 Breast”. Turning to VSAASSV, the “Cell Line the peptide is associated with (peptide recovered from phage library selection on this NCI-60 cell line)” value is “RXF393 Renal”. Consider VSGDGGS, for which the “Cell Line (NCI-60 cell line the peptide is associated with)” value is “SNB-75 CNS”. In the case of VSGSGTA, the “Cell Line (NCI-60 cell line the peptide and its motif are associated with)” value is “PC3 Prostate”. Regarding VSRIGVR, the “Cell Line (NCI-60 cell line the peptide is associated with)” value was “LOX-IMVI Melanoma”.

On to VSSTARG, for which the “Cell Line (NCI-60 cell line the peptide is associated with)” value is listed as “MALME-3M Melanoma”. The same measure, in the same setting: for VTDGAGQ the value was “SF-268 CNS”.

For the substance VTGGRVD, the “Cell Line with which the peptide” value is listed as “A549-Lung”. As for VTRIRVS, the “Cell Line (NCI-60 cell line the peptide and its motif are associated with)” value is recorded as “UACC 257 Melanoma”. In the case of VVASLPH, the “Cell Line (NCI-60 cell line the peptide is associated with)” value is given as “HT-29 Colon”. For VVGGRRT, the “Cell Line the peptide is associated with (peptide recovered from phage library selection on this NCI-60 cell line)” value is recorded as “HS 578 T Breast”.

On to VVMIAGS, for which the “Cell Line the peptide is associated with (peptide recovered from phage library selection on this NCI-60 cell line)” value is recorded as “MDA-MB-231 Breast”. Consider VWAGVLL, for which the “Cell Line with which the peptide” value is reported as “Hop-62-Lung”. For VWGVGGS, the “Cell Line with which the peptide” value is reported as “K-562-Leukemia”. With VWLRGST, the “Cell Line (NCI-60 cell line the peptide and its motif are associated with)” value is reported as “M14 Melanoma”.

Take VYGGRSE: the “Cell Line the peptide is associated with (peptide recovered from phage library selection on this NCI-60 cell line)” value was “CAIK-1 Renal”. Turning to VYGWGGS, the “Cell Line (NCI-60 cell line the peptide and its motif are associated with)” value is listed as “DU-145 Prostate”.

With VYWWGVS, the “Cell Line the peptide is associated with (peptide recovered from phage library selection on this NCI-60 cell line)” value was “A498 Renal”.

Consider VYYALRS, for which the “Cell Line (NCI-60 cell line the peptide is associated with)” value is on record as “KM-12C Colon”.

Regarding VYYRLSA, the “Cell Line with which the peptide” value is recorded as “SR Leukemia”. Turning to WAGLSPS, the “Cell Line with which the peptide” value was “Hop-92-Lung”.

On to WAGLSRP, for which the “Cell Line the peptide is associated with (peptide recovered from phage library selection on this NCI-60 cell line)” value is given as “SN12C Renal”.

As to WAGSNYS, the “Cell Line (NCI-60 cell line the peptide is associated with)” value is listed as “SNB-75 CNS”.

Regarding WAHAASY, the “Cell Line the peptide is associated with (peptide recovered from phage library selection on this NCI-60 cell line)” value was “CAIK-1 Renal”. With WAHGVLS, the “Cell Line (NCI-60 cell line the peptide and its motif are associated with)” value was “M14 Melanoma”. For the substance WARAGGF, the “Cell Line (NCI-60 cell line the peptide is associated with)” value was “SNB-19 CNS; also recorded: SF-539 CNS”. For WDGSSVS, the “Cell Line the peptide is associated with (peptide recovered from phage library selection on this NCI-60 cell line)” value is on record as “SN12C Renal”. For WDQGSGY, the “Cell Line (NCI-60 cell line the peptide and its motif are associated with)” value was “OVCAR-4 Ovarian”. For WFGAVGL, the “Cell Line with which the peptide” value is “Molt-4-Leukemia”. In the case of WFKGPSV, the “Cell Line (NCI-60 cell line the peptide is associated with)” value is “SF-268 CNS”. Regarding WFSWLVS, the “Cell Line with which the peptide” value is reported as “H460-Lung”. Turning to WGAGFWM, the “Cell Line with which the peptide” value is “H460-Lung”. WGAGLDA: the “Cell Line (NCI-60 cell line the peptide and its motif are associated with)” value is reported as “OVCAR-4 Ovarian”. For WGATAGG, the “Cell Line with which the peptide” value is “Hop-62-Lung”.

Turning to WGLVRHA, the “Cell Line (NCI-60 cell line the peptide is associated with)” value is “SF-268 CNS”. For WGRGSVA, the “Cell Line with which the peptide” value is “Molt-4-Leukemia”. With WGRLEST, the “Cell Line the peptide is associated with (peptide recovered from phage library selection on this NCI-60 cell line)” value was “BT-549 Breast”. For WGSGRGN, the “Cell Line with which the peptide” value was “HL-60-Leukemia”. WGSSAVK: the “Cell Line (NCI-60 cell line the peptide and its motif are associated with)” value is given as “IGROV1 Ovarian”.

Turning to WGSSTVR, the “Cell Line with which the peptide” value is recorded as “H322-Lung”. In the case of WGSVAGI, the “Cell Line (NCI-60 cell line the peptide is associated with)” value is reported as “SNB-75 CNS”. With WGVAGLG, the “Cell Line (NCI-60 cell line the peptide is associated with)” value is recorded as “HT-29 Colon”. As for WGVLQLE, the “Cell Line (NCI-60 cell line the peptide is associated with)” value is given as “LOX-IMVI Melanoma”.

Take WGWRASS: the “Cell Line with which the peptide” value was “A549-Lung”. WISAVSK: the “Cell Line (NCI-60 cell line the peptide and its motif are associated with)” value was “SK-OV-3-3 Ovarian”.

WIWRAVS: the “Cell Line (NCI-60 cell line the peptide is associated with)” value is given as “SF-268 CNS”.

For WLDAAVK, the “Cell Line (NCI-60 cell line the peptide is associated with)” value was “LOX-IMVI Melanoma”.

For WLDASLM, the “Cell Line with which the peptide” value was “SR Leukemia”. As to WLLRGFG, the “Cell Line (NCI-60 cell line the peptide and its motif are associated with)” value is given as “A498 Renal”. Regarding WLLRSWS, the “Cell Line the peptide is associated with (peptide recovered from phage library selection on this NCI-60 cell line)” value is “CAIK-1 Renal”. Turning to WLLSARL, the “Cell Line (NCI-60 cell line the peptide is associated with)” value is reported as “HCC-2998-Colon”. In the case of WLLSSEI, the “Cell Line (NCI-60 cell line the peptide and its motif are associated with)” value is recorded as “PC3 Prostate”. For the substance WQVALRS, the “Cell Line (NCI-60 cell line the peptide is associated with)” value is recorded as “HT-29 Colon”. For the substance WQVSGVR, the “Cell Line (NCI-60 cell line the peptide is associated with)” value is listed as “KM-12C Colon”. As to WRARASP, the “Cell Line (NCI-60 cell line the peptide and its motif are associated with)” value is recorded as “UACC62 Melanoma”. In the case of WRASAFT, the “Cell Line with which the peptide” value was “SR Leukemia”. As for WRASPGM, the “Cell Line the peptide is associated with (peptide recovered from phage library selection on this NCI-60 cell line)” value is listed as “BT-549 Breast”. As to WRGGLDR, the “Cell Line the peptide is associated with (peptide recovered from phage library selection on this NCI-60 cell line)” value is “MCF-7 Breast”. WRLAGLG: the “Cell Line the peptide is associated with (peptide recovered from phage library selection on this NCI-60 cell line)” value was “NCI/ADR-RES Breast”. Regarding WRLGAVG, the “Cell Line (NCI-60 cell line the peptide is associated with)” value is on record as “SW620-Colon”.

With WRLLRRQ, the “Cell Line with which the peptide” value is reported as “SR Leukemia”. Consider WRLSREG, for which the “Cell Line (NCI-60 cell line the peptide and its motif are associated with)” value is given as “SK-MEL-2 Melanoma”.

Consider WRVRSSG, for which the “Cell Line (NCI-60 cell line the peptide is associated with)” value is given as “HCT-15 Colon”. With WSAGGPH, the “Cell Line with which the peptide” value is on record as “SR Leukemia”. WSATGVS: the “Cell Line the peptide is associated with (peptide recovered from phage library selection on this NCI-60 cell line)” value is “HS 578 T Breast”.

As for WSGGLNV, the “Cell Line with which the peptide” value is listed as “H322-Lung”. Regarding WSGVSRL, the “Cell Line (NCI-60 cell line the peptide is associated with)” value is on record as “HCT-15 Colon”. On to WSISGSV, for which the “Cell Line the peptide is associated with (peptide recovered from phage library selection on this NCI-60 cell line)” value is on record as “MDA-MB-231 Breast”. Regarding WSSTASL, the “Cell Line with which the peptide” value is reported as “H460-Lung”. As to WTERASA, the “Cell Line (NCI-60 cell line the peptide is associated with)” value is reported as “HCT-15 Colon”.

For WTKRGSV, the “Cell Line with which the peptide” value was “K-562-Leukemia”. Take WTVGGRV: the “Cell Line the peptide is associated with (peptide recovered from phage library selection on this NCI-60 cell line)” value is listed as “A498 Renal”. In the case of WVGPSGG, the “Cell Line (NCI-60 cell line the peptide and its motif are associated with)” value is recorded as “SK-MEL-5 Melanoma”. Turning to WVGSGSP, the “Cell Line with which the peptide” value is reported as “Hop-92-Lung”. As to WVGSSKF, the “Cell Line with which the peptide” value was “A549-Lung”. Turning to WVSGRLG, the “Cell Line (NCI-60 cell line the peptide is associated with)” value is reported as “COLO-205-Colon”.

On to WWAAVPG, for which the “Cell Line the peptide is associated with (peptide recovered from phage library selection on this NCI-60 cell line)” value is “SN12C Renal”. On to WWGLGWL, for which the “Cell Line (NCI-60 cell line the peptide is associated with)” value is “HCC-2998-Colon”. Regarding WYGGRGN, the “Cell Line (NCI-60 cell line the peptide and its motif are associated with)” value is listed as “OVCAR-4 Ovarian”. Take YAAGGST: the “Cell Line (NCI-60 cell line the peptide and its motif are associated with)” value was “A498 Renal”; the “Cell Line the peptide is associated with (peptide recovered from phage library selection on this NCI-60 cell line)” value is listed as “A498 Renal”.

Turning to YAASLMG, the “Cell Line (NCI-60 cell line the peptide is associated with)” value is recorded as “SNB-75 CNS”. Take YADGAAV: the “Cell Line (NCI-60 cell line the peptide is associated with)” value was “SF-295 CNS”. Take YAGSGQL: the “Cell Line (NCI-60 cell line the peptide and its motif are associated with)” value was “OVCAR-8 Ovarian”. Still for that read-out and setting: for YATLGSS the value was “PC3 Prostate”. Consider YDGLVSG, for which the “Cell Line (NCI-60 cell line the peptide is associated with)” value is on record as “COLO-205-Colon”. As for YDGRLAR, the “Cell Line (NCI-60 cell line the peptide is associated with)” value is listed as “SNB-19 CNS; also recorded: SF-539 CNS”. Consider YFRARGS, for which the “Cell Line (NCI-60 cell line the peptide and its motif are associated with)” value was 786-0 Renal.

As to YGALAGL, the “Cell Line (NCI-60 cell line the peptide and its motif are associated with)” value was “PC3 Prostate”. Take YGESLLR: the “Cell Line (NCI-60 cell line the peptide is associated with)” value is “SNB-75 CNS”. With YGIGVRL, the “Cell Line with which the peptide” value is given as “H23-Lung”. In the case of YGLRSLV, the “Cell Line the peptide is associated with (peptide recovered from phage library selection on this NCI-60 cell line)” value was “BT-549 Breast”. For YGQYGGL, the “Cell Line (NCI-60 cell line the peptide is associated with)” value is reported as “HCT-15 Colon”.

Consider YGSGGRG, for which the “Cell Line (NCI-60 cell line the peptide is associated with)” value was “HT-29 Colon”.

Regarding YGSVALR, the “Cell Line (NCI-60 cell line the peptide is associated with)” value is “H522-Lung”.

Turning to YGVSRLL, the “Cell Line (NCI-60 cell line the peptide and its motif are associated with)” value was “DU-145 Prostate”. With YLAGGKA, the “Cell Line (NCI-60 cell line the peptide and its motif are associated with)” value is “IGROV1 Ovarian”. Same read-out and setting: for YLGLGGL the value was “DU-145 Prostate”.

On to YLGRRVS, for which the “Cell Line (NCI-60 cell line the peptide is associated with)” value is listed as “SW620-Colon”. Same read-out and setting: the value for YLLRALG was “SF-268 CNS”.

For the substance YLRSAGM, the “Cell Line (NCI-60 cell line the peptide and its motif are associated with)” value is “PC3 Prostate”. Turning to YMYHGRV, the “Cell Line (NCI-60 cell line the peptide and its motif are associated with)” value is “OVCAR-4 Ovarian”.

The record behind these values is patent publication US7781565B2 (priority 2006, dated 2010).
